# Reference: patent US20120178915A1, “PYRIMIDINE DERIVATIVES AND ANALOGS, PREPARATION METHOD AND USE THEREOF” (priority 2009, published 2012)
# Like-named read-outs stand apart in the source and are kept apart here.
# Legend:
# Pyogenic Streptococcus = experiment: microbe, parasite or virus in culture; format: cell-based; conditions: 37° C., 24 h, read-out: Minimum Inhibitory Concentration, MIC
# [1] = test system: Staphylococcus aureus 705 (MRSA); experiment: microbe, parasite or virus in culture; format: cell-based; conditions: 24 h, read-out: Minimum Inhibitory Concentration, MIC
# [2] = test system: Streptococcus pneumoniae M2; experiment: microbe, parasite or virus in culture; format: cell-based; conditions: 37° C., 24 h, read-out: Minimum Inhibitory Concentration, MIC
# [3] = test system: Enterococcus fecal F631 (VRE); experiment: organism not typed; format: cell-based; conditions: 24 h, read-out: Minimum Inhibitory Concentration, MIC
# Streptococcus 10342 = experiment: MIC broth microdilution; format: cell-based; conditions: 37° C., 24 h, read-out: Minimum Inhibitory Concentration, MIC
# [4] = test system: Streptococcus bovis 10035; experiment: microbe, parasite or virus in culture; format: cell-based; conditions: Streptococcus equinus, 37° C., 24 h, read-out: Minimum Inhibitory Concentration, MIC
# [5] = test system: Enterococcus faecalis 1513 (VRE); experiment: microbe, parasite or virus in culture; format: cell-based; conditions: 24 h, read-out: Minimum Inhibitory Concentration, MIC
# [6] = test system: Staphylococcus aureus 704 (MRSA); experiment: microbe, parasite or virus in culture; format: cell-based; conditions: 24 h, read-out: Minimum Inhibitory Concentration, MIC
# [7] = test system: Corynebacterium diphtheriae; experiment: microbe, parasite or virus in culture; format: cell-based; conditions: 37° C., 24 h, read-out: Minimum Inhibitory Concentration, MIC
# [8] = test system: Staphylococcus aureus 703 (MRSA); experiment: microbe, parasite or virus in culture; format: cell-based; conditions: 24 h, read-out: Minimum Inhibitory Concentration, MIC
# Bacillus cereus 2 = experiment: microbe, parasite or virus in culture; format: cell-based; conditions: 37° C., 24 h, read-out: Minimum Inhibitory Concentration, MIC
# [9] = test system: Streptococcus pneumoniae 10351; experiment: microbe, parasite or virus in culture; format: cell-based; conditions: 37° C., 24 h, read-out: Minimum Inhibitory Concentration, MIC
# Bacillus subtilis 168 = experiment: microbe, parasite or virus in culture; format: cell-based; conditions: 37° C., 24 h, read-out: Minimum Inhibitory Concentration, MIC
# Gram-positive Bacteria = format: cell-based; conditions: the majority of Bacillus cereus, Bacillus subtilis and Enterococcus faecalis
# [10] = test system: Streptococcus agalactiae B; experiment: microbe, parasite or virus in culture; format: cell-based; conditions: 37° C., 24 h, read-out: Minimum Inhibitory Concentration, MIC
# [11] = test system: Staphylococcus aureus 43300 (MRSA); experiment: microbe, parasite or virus in culture; format: cell-based; conditions: 24 h, read-out: Minimum Inhibitory Concentration, MIC
# Clostridium tetani = experiment: microbe, parasite or virus in culture; format: cell-based; conditions: 24 h
# Clostridium perfringens = experiment: microbe, parasite or virus in culture; format: cell-based; conditions: 24 h, read-out: Minimum Inhibitory Concentration, MIC
# Bacillus cereus 246 = experiment: microbe, parasite or virus in culture; format: cell-based; conditions: 37° C., 24 h, read-out: Minimum Inhibitory Concentration, MIC
# [12] = test system: Streptococcus pneumoniae 6303 (PRSP); experiment: microbe, parasite or virus in culture; format: cell-based; conditions: 24 h, read-out: Minimum Inhibitory Concentration, MIC
# Oral candidiasis = experiment: MIC broth microdilution; format: cell-based; conditions: Microorganism 32, Oral candidiasis; 37° C., 24 h; read-out: Minimum Inhibitory Concentration, MIC
# [13] = test system: Enterococcus faecalis 583 (VRE); experiment: microbe, parasite or virus in culture; format: cell-based; conditions: 24 h, read-out: Minimum Inhibitory Concentration, MIC
# [14] = test system: Streptococcus pneumoniae 6301; experiment: microbe, parasite or virus in culture; format: cell-based; conditions: 37° C., 24 h, read-out: Minimum Inhibitory Concentration, MIC
# [15] = test system: Staphylococcus aureus 29231; experiment: microbe, parasite or virus in culture; format: cell-based; conditions: 37° C., 24 h, read-out: Minimum Inhibitory Concentration, MIC
# [16] = test system: Enterococcus faecalis 51299; experiment: microbe, parasite or virus in culture; format: cell-based; conditions: Enterococcus faecalis, 51299, 24 h, read-out: Minimum Inhibitory Concentration, MIC
# [17] = test system: Enterococcus faecalis F2518 (VRE); experiment: microbe, parasite or virus in culture; format: cell-based; conditions: 24 h, read-out: Minimum Inhibitory Concentration, MIC
# green Streptococcus 1009 = experiment: microbe, parasite or virus in culture; format: cell-based; conditions: 37° C., 24 h, read-out: Minimum Inhibitory Concentration, MIC
# MIC broth microdilution = format: cell-based; conditions: Microorganism 33, Dermatophytosis; 37° C., 24 h; read-out: Minimum Inhibitory Concentration, MIC
# Bacillus subtilis 82 = experiment: microbe, parasite or virus in culture; format: cell-based; conditions: 37° C., 24 h, read-out: Minimum Inhibitory Concentration, MIC
# [18] = test system: Streptococcus pneumoniae 62; experiment: microbe, parasite or virus in culture; format: cell-based; conditions: 37° C., 24 h, read-out: Minimum Inhibitory Concentration, MIC
# Bacillus anthracis 1 = experiment: microbe, parasite or virus in culture; format: cell-based; conditions: Bacillus anthracis, 1, 24 h, read-out: Minimum Inhibitory Concentration, MIC
# [19] = test system: Enterococcus faecalis 29212; experiment: microbe, parasite or virus in culture; format: cell-based; conditions: 37° C., 24 h, read-out: Minimum Inhibitory Concentration, MIC
# [20] = test system: Enterococcus faecalis 19433; experiment: microbe, parasite or virus in culture; format: cell-based; conditions: 37° C., 24 h, read-out: Minimum Inhibitory Concentration, MIC
# MRSA 2152 = experiment: Antibacterial studies in vivo, survival of mice infected with MRSA 2152; conditions: dose mg/kg: ciprofloxacin 20, 3: 30, 7: 40, 21: 50, 33: 25, 70: 70
# [21] = read-out: Minimum Inhibitory Concentration, MIC, Microorganism 29, Clostridium tetani, 37° C.
# [22] = read-out: Minimum Inhibitory Concentration, MIC, Microorganism 30, Clostridium tetani (second line of that name), 37° C.
Compound,MIC (Pyogenic Streptococcus),MIC [1],MIC [2],MIC [3],MIC (Streptococcus 10342),MIC [4],MIC [5],MIC [6],MIC [7],MIC [8],MIC (Bacillus cereus 2),MIC [9],MIC (Bacillus subtilis 168),MIC [10],MIC [11],MIC (Clostridium tetani; [21]),MIC (Clostridium tetani; [22]),MIC (Clostridium perfringens),MIC (Bacillus cereus 246),MIC [12],other results
O=c1[nH]c(-c2ccc(C(F)(F)F)cc2)nc2cc(Cl)ccc12 [Compound 14],132 µM,210 µM,120 µM,221 µM,170 µM,100 µM,130 µM,160 µM,135 µM,125 µM,20.2 µM,104 µM,12.5 µM,225 µM,120 µM,160 µM,120 µM,125 µM,30.2 µM,250 µM,inhibition of growth (conclusion from MICs) (Gram-positive Bacteria): significantly inhibited the growth; MIC (Oral candidiasis): 133 µM; MIC [13]: 120 µM; MIC [14]: 141 µM; MIC [15]: 6.31 µM; MIC [16]: 21.5 µM; MIC [17]: 122 µM; MIC (green Streptococcus 1009): 126 µM; MIC (MIC broth microdilution): 121 µM; MIC (Bacillus subtilis 82): 10.3 µM; MIC [18]: 100 µM; MIC (Bacillus anthracis 1): 122 µM; MIC [19]: 15 µM; MIC [20]: 13.5 µM
Cc1nn2c(=O)c(C)c(-c3ccc(C#N)cc3)[nH]c2c1-c1ccc(C(F)(F)F)cc1 [Compound 33],0.63 µM,0.33 µM,1.25 µM,0.63 µM,0.3 µM,10.5 µM,5 µM,0.28 µM,80.3 µM,0.42 µM,1.25 µM,0.04 µM,1.25 µM,0.56 µM,0.55 µM,60.3 µM,50.6 µM,31.2 µM,1.25 µM,1.3 µM,"Survival rate (%) (life prolongation rate) (MRSA 2152; (survival days of test group − blank group)/blank group ×100%, MRSA 2152 mice, tail vein): 169.2%; Survival (MRSA 2152; mice inoculated intraperitoneally with MRSA 2152, test compound by tail vein, repeated after six hours, saline 1.3 days): 3.5 days; MIC (Oral candidiasis): 126 µM; MIC [13]: 2.5 µM; MIC [14]: 2.5 µM; MIC [15]: 0.63 µM; MIC [16]: 2.5 µM; MIC [17]: 2.5 µM; MIC (green Streptococcus 1009): 0.3 µM; MIC (MIC broth microdilution): 53.6 µM; MIC (Bacillus subtilis 82): 0.31 µM; MIC [18]: 0.63 µM; MIC (Bacillus anthracis 1): 35.6 µM; MIC [19]: 2.5 µM; MIC [20]: 5 µM"
CCc1nn2c(=O)c(C)c(-c3ccc(C(F)(F)F)cc3)[nH]c2c1-c1ccc(Cl)cc1Cl [Compound 23],231 µM,150 µM,200 µM,80.5 µM,123 µM,153 µM,152 µM,180 µM,162 µM,131 µM,110 µM,155 µM,101 µM,200 µM,120 µM,80.2 µM,50.2 µM,30.6 µM,200 µM,231 µM,MIC (Oral candidiasis): 122 µM; MIC [13]: 132 µM; MIC [14]: 170 µM; MIC [15]: 282 µM; MIC [16]: 130 µM; MIC [17]: 215 µM; MIC (green Streptococcus 1009): 210 µM; MIC (MIC broth microdilution): 56.1 µM; MIC (Bacillus subtilis 82): 110 µM; MIC [18]: 160 µM; MIC (Bacillus anthracis 1): 166 µM; MIC [19]: 220 µM; MIC [20]: 140 µM
